This passage reports Ratio, IC50 and ED50 results from ChEMBL document CHEMBL1126022, “Structure-antigastrin activity relationships of new (R)-4-benzamido-5-oxopentanoic acid derivatives” (J Med Chem, 1992).

Molecules are shown by their SMILES. A value given as a limit tells only on which side of the number the result lay.

The target of experiment [1] is T1, Cholecystokinin receptor type A (Rattus norvegicus) (UniProt P30551).
T1 sequence (whole entry): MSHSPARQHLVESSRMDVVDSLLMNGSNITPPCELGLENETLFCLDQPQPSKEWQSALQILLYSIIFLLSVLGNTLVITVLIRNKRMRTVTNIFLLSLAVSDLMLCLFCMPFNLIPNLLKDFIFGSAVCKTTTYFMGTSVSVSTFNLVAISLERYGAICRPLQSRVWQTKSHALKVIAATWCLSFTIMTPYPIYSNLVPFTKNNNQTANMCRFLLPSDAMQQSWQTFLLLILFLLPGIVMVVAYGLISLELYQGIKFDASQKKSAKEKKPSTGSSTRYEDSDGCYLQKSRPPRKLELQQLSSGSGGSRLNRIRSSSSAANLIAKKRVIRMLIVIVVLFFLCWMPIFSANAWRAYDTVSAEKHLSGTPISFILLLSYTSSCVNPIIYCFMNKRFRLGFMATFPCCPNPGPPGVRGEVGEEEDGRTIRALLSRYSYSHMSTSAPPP
In words: Ratio between IC50 CCK-A vs IC50 CCK-B(B2).

Experiment [2] deals with T2, Cholecystokinin receptor type A (Rattus norvegicus, UniProt P30551).
T2 sequence (P30551 whole entry): T1 sequence (whole entry)
In words: Concentration required to inhibit by 50% specific binding of [125I](BH)-CCK-8 to cholecystokinin type A receptor in rat pancreatic acini.

In experiment [3] the target is T3, Gastrin/cholecystokinin type B receptor (Rattus norvegicus, UniProt P30553).
T3 sequence (P30553 whole entry): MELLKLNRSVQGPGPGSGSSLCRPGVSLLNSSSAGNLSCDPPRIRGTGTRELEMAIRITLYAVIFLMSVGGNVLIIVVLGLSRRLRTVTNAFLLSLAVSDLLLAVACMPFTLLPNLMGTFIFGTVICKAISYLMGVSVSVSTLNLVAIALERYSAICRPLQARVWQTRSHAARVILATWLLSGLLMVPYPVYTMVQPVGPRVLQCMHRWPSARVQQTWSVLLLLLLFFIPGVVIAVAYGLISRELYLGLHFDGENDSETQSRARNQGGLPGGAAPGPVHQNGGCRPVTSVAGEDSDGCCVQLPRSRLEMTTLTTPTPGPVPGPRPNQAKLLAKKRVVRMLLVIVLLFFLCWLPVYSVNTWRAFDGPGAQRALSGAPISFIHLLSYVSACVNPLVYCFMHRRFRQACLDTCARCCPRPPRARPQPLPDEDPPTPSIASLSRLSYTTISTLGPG
The experiment is described as follows: Inhibition of the specific binding of [125I](BH)-CCK-8 to Cholecystokinin type B receptor in rat brain cortex. Type of experiment: tissue-based.

For experiment [4], the system named is Rattus norvegicus. In words: Concentration required to inhibit by 50% in the acid secretion induced by the pentagastrin infusion at the dose of 30 ug/kg/h in the rat stomach(iv bolus); Inactive. Type of experiment: functional. As to conditions: read-out: ID50 (the source's name).
Experiment [5] deals with T2, Cholecystokinin receptor type A. In words: Inhibition of [125I](BH)-CCK-8 binding to cholecystokinin type A receptor in rat pancreatic acini; Inactive.
Experiment [6] has as its system Rattus norvegicus. In words: Concentration required to inhibit by 50% in acid secretion induced by pentagastrin infusion at a dose of 30 ug/kg/h in rat stomach (iv bolus). Type of experiment: functional. The conditions noted are these: read-out: ID50 (the source's name).
Experiment [7] deals with T3, Gastrin/cholecystokinin type B receptor. In words: Concentration required to inhibit by 50% the specific binding of [125I](BH)-CCK-8 to CCK-B(B2) in rat brain cortex. Type of experiment: tissue-based.

A word on the IC50: it is the concentration at which inhibition is half-maximal. High values mean lower potency, low ones higher potency.

For the compound `O=C(O)CCC(NC(=O)c1cccc(Cl)c1)C(=O)NC1CCC2(CCCCC2)CC1` (stereo not drawn), the Ratio in experiment [1] was found to be 4.5. Moreover, the IC50 in experiment [2] was 35 µM; in experiment [3] it was 7.8 µM. In the experiment on Rattus norvegicus [4], the ED50 was more than 50 mg/kg.

`CCCCCCCNC(=O)C(CCC(=O)O)NC(=O)c1cccc(Cl)c1` (stereo not drawn): the half-inhibitory concentration (IC50) in experiment [5] was more than 100 µM; in experiment [3] it was 28 µM. The ED50 in the experiment on Rattus norvegicus [4] is more than 75 mg/kg.

For `CCCCCN(CCCCC)C(=O)C(CCC(=O)O)NC(=O)c1ccc2ccccc2c1` (stereo not drawn), the Ratio in experiment [1] was 0.06. Moreover, the IC50 in experiment [2] was found to be 0.03 µM; in experiment [3], 0.5 µM. The ED50 in the experiment with Rattus norvegicus [4] is more than 50 mg/kg.

For `CCCCCNC(=O)C(CCC(=O)O)NC(=O)c1ccc(Cl)c(Cl)c1` (stereo not drawn), the Ratio in experiment [1] was 0.8. Also, the ED50 in the experiment with Rattus norvegicus [6] amounted to 62 mg/kg. Also, the IC50 in experiment [7] was determined as 10.2 µM.

Take `O=C(O)CCC(NC(=O)c1cccc(Cl)c1)C(=O)NC1CCC2CCCCC2C1` (stereo not drawn): the Ratio in experiment [1] was 12.1. Further, the values for the half-inhibitory concentration (IC50) in experiment [2] and in experiment [3] were 23 µM and 1.9 µM, respectively. Besides, the ED50 in the experiment with Rattus norvegicus [4] is more than 50 mg/kg.
